Drawing on PubChem BioAssay (NCI), this text covers TGI for 15 compounds.

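Grown in 96-well plates, cells were treated for 48 hours with each compound at five concentrations. Insufficient inhibition: endpoint recorded as highest concentration tested. TGI: concentration producing complete growth inhibition.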

Among the test systems are M19-MEL melanoma; HCT-15 colon; EKVX NSCLC; LOX IMVI melanoma; DLD-1 colon; SNB-78 CNS; SF-268 CNS; A549 NSCLC; MOLT-4 leukemia; MCF7 breast; PC-3 prostate.
Test in all cases: growth of human tumour cells (NCI), 48 h

On to `CNC(=O)N(C)COC`, for which the TGI in the experiment with M19-MEL melanoma, in the experiment with HCT-15 colon, with EKVX NSCLC, in the experiment with LOX IMVI melanoma, in the experiment with DLD-1 colon and in the experiment on SNB-78 CNS was greater than 100 µM throughout. The TGI in the experiment on SF-268 CNS, in the experiment with A549 NSCLC and with MOLT-4 leukemia was greater than 100 µM throughout.

For the compound `CSc1c(C#N)c(N)nc2c(N=Nc3ccc(Cl)cc3)c(N)nn12`, the TGI with MCF7 breast was determined as 4.71 µM; in the experiment on HCT-15 colon it was 5.5 µM; with EKVX NSCLC, 11.4 µM; in the experiment with LOX IMVI melanoma it was 2.87 µM; in the experiment with PC-3 prostate it was 7.38 µM; with SF-268 CNS it was 5.7 µM. The TGI was greater than 73.8 µM in the experiment with A549 NSCLC and 5.47 µM in the experiment on MOLT-4 leukemia.

Regarding `COCOc1c(C(O[Si](C)(C)C(C)(C)C)c2cnc(Sc3ccccc3)n2C)ccc(OC)c1OC` (stereo unspecified), the TGI in the experiment with MCF7 breast was found to be 3.8 µM; in the experiment with HCT-15 colon it was 4.32 µM; in the experiment with EKVX NSCLC, 7.65 µM; in the experiment on LOX IMVI melanoma, 3.23 µM; in the experiment on PC-3 prostate it was 3.04 µM; with SF-268 CNS it was 3.34 µM. The TGI in the experiment with A549 NSCLC turned out to be 4.33 µM; in the experiment on MOLT-4 leukemia it was 8.95 µM.

`CC1C2CC(C(S(=O)(=O)N3CCOCC3)/C2=N\O)C1(C)C` (stereo unspecified): the TGI in the experiment with MCF7 breast, in the experiment on HCT-15 colon, with EKVX NSCLC, with LOX IMVI melanoma, in the experiment with PC-3 prostate and in the experiment on SF-268 CNS was greater than 100 µM throughout. Also, the TGI with A549 NSCLC and in the experiment on MOLT-4 leukemia was greater than 100 µM each time.

As for `Cc1cc(C)nc(SC(C)C(=O)N/N=C/c2ccc(OCc3ccccc3)cc2)n1` (stereo unspecified), the TGI with MCF7 breast is 90.5 µM; in the experiment with HCT-15 colon, greater than 100 µM; with EKVX NSCLC, greater than 100 µM; with LOX IMVI melanoma, greater than 100 µM; in the experiment with PC-3 prostate it was 58.7 µM; with SF-268 CNS, greater than 100 µM. Besides, the TGI is greater than 100 µM with A549 NSCLC and 86.1 µM in the experiment on MOLT-4 leukemia.

`O=c1[nH]c(Nc2cc(Cl)cc(Cl)c2)nc2nc[nH]c12`: the TGI in the experiment with MCF7 breast, in the experiment on HCT-15 colon, in the experiment on EKVX NSCLC, in the experiment with LOX IMVI melanoma, in the experiment with PC-3 prostate and in the experiment with SF-268 CNS was greater than 75 µM each time. The TGI in the experiment on A549 NSCLC and in the experiment with MOLT-4 leukemia was greater than 75 µM each time.

Regarding `COc1ccc(/C=C2\CCC(CNc3ccc(OC)cc3)C2=O)cc1` (stereo unspecified), the TGI in the experiment with MCF7 breast is 13.3 µM; in the experiment on HCT-15 colon, 20.4 µM; in the experiment on EKVX NSCLC, greater than 73.5 µM; in the experiment on LOX IMVI melanoma it was 28 µM; in the experiment with PC-3 prostate it was 37 µM; in the experiment on SF-268 CNS it was 34.1 µM. The TGI was greater than 94.1 µM with A549 NSCLC and greater than 40.8 µM in the experiment with MOLT-4 leukemia.

Consider `CC(C)[Si](OC1=CCC[C@H]2NC(=O)[C@@H](Cc3ccccc3)[C@@]12C)(C(C)C)C(C)C`, for which the TGI in the experiment on MCF7 breast was determined as 13.4 µM; in the experiment on HCT-15 colon, 15.6 µM; with EKVX NSCLC, 15 µM; in the experiment with LOX IMVI melanoma, 11.2 µM; in the experiment with PC-3 prostate, 12.3 µM; with SF-268 CNS, 29.1 µM. Besides, the TGI with A549 NSCLC was found to be 12.6 µM; in the experiment with MOLT-4 leukemia, 14.7 µM.

In the case of `CCOC(=O)NC(NC1=NCCS1)(C(=O)OCC)C(F)(F)F` (stereo unspecified), the TGI with MCF7 breast, in the experiment on HCT-15 colon, in the experiment with EKVX NSCLC, with LOX IMVI melanoma, in the experiment on PC-3 prostate and in the experiment on SF-268 CNS was greater than 100 µM each time. Besides, the TGI with A549 NSCLC and in the experiment with MOLT-4 leukemia was greater than 100 µM in each case.

Consider `CCn1cc(C(=O)O)c(=O)c2cc3c(cc21)S(=O)(=O)CC3`, for which the TGI in the experiment with MCF7 breast, in the experiment with HCT-15 colon, in the experiment on EKVX NSCLC, in the experiment on LOX IMVI melanoma, with PC-3 prostate and with SF-268 CNS was greater than 100 µM throughout. The TGI with A549 NSCLC and with MOLT-4 leukemia was greater than 100 µM throughout.

For `O=C1CCC(=O)N1n1c(Cc2ccc(Cl)cc2)n[nH]c1=O`, the TGI with MCF7 breast, with HCT-15 colon, in the experiment on EKVX NSCLC, in the experiment with LOX IMVI melanoma, in the experiment on PC-3 prostate and with SF-268 CNS was greater than 100 µM throughout. The TGI in the experiment on A549 NSCLC and with MOLT-4 leukemia was greater than 100 µM each time.

For `COC(=O)/C=C/c1ccc2c(c1)CC1(C2)Cc2cc3c(cc2C1=O)CCC3` (stereo unspecified), the TGI in the experiment with MCF7 breast, in the experiment on HCT-15 colon, with EKVX NSCLC, with LOX IMVI melanoma, in the experiment on PC-3 prostate and in the experiment on SF-268 CNS was greater than 100 µM in each case. Moreover, the TGI in the experiment with A549 NSCLC and in the experiment on MOLT-4 leukemia was greater than 100 µM throughout.

On to `O=c1oc2cc(O)ccc2c(O)c1C(c1cccnc1)c1c(O)c2ccc(O)cc2oc1=O`, for which the TGI with MCF7 breast, in the experiment on HCT-15 colon, in the experiment on EKVX NSCLC, with LOX IMVI melanoma, in the experiment on PC-3 prostate and in the experiment on SF-268 CNS was greater than 100 µM each time. Also, the TGI in the experiment on A549 NSCLC and with MOLT-4 leukemia was greater than 100 µM in each case.

In the case of `CN1C(=O)[C@@H]2[C@@H]3c4ccccc4N(S(=O)(=O)C(F)(F)F)[C@@H]3c3[nH]c4ccccc4c3[C@@H]2C1=O`, the TGI in the experiment on MCF7 breast, in the experiment on HCT-15 colon, with EKVX NSCLC, in the experiment on LOX IMVI melanoma, in the experiment with PC-3 prostate and in the experiment with SF-268 CNS was greater than 100 µM in each case. The TGI was greater than 100 µM with A549 NSCLC and 47 µM in the experiment on MOLT-4 leukemia.

For the compound `O=C1[C@@H]2[C@@H](c3ccccc3)[C@]2(Cl)C(=O)[C@H]2[C@H](c3ccccc3)[C@@]12Cl`, the TGI in the experiment on MCF7 breast, with HCT-15 colon, with EKVX NSCLC, with LOX IMVI melanoma, in the experiment with PC-3 prostate and with SF-268 CNS was greater than 100 µM throughout. In addition, the TGI in the experiment on A549 NSCLC and with MOLT-4 leukemia was greater than 100 µM throughout.
